Results as given in US9645136B2, “Methods of treating a meiotic kinesin-associated disease” (DANA-FARBER CANCER INSTITUTE, INC., priority 2008, dated 2017).

Assays:
S2 cells [1] = experiment: Centrosome clustering defects in S2 cells after short drug treatment; type: cell-based, Drosophila
Description: In addition to genes that likely contribute to the bundling and organization of spindle MTs, unexpectedly, genes involved in the organization and regulation of the actin cytoskeleton, such as the formin Form3/INF2 were also identified (Chhabra, E. S. and Higgs, H. N. (2006) J Biol Chem 281:26754-26767). […] Experiments using a brief (2 hr) treatment with small molecules that disrupt the actin cytoskeleton similarly induce multipolar mitoses.
More specifically, cells were treated with Latrunculin (40 μM LatA), Cytochalasin D (20 μM) for 2 hours and the percentage of centrosome clustering defects was determined.
Next, it was determined if cortical contraction is required for centrosome clustering. Cells were exposed, for 2 hours, to soluble tetravalent lectin concanavalin A (Con-A), which crosslinks the plasma membrane and thus globally blocks cortical contraction (Canman, J. C. and Bement, W. M. (1997) J Cell Sci 110 (Pt 16):1907-1917). The percentage of centrosome clustering defects after Con-A treatment was determined.
Low concentrations of calyculin A (CA) inhibit the myosin light chain phosphatase (MLCP) and promote myosin II activation without altering its distribution (Gupton, S. M. and Waterman-Storer, C. M. (2006) Cell 125:1361-1374). […] Thus, in cells with extra centrosomes, actin and actin-based contractility influence whether mitosis is bipolar or multipolar.
It was also determined whether the actin and intrinsic spindle forces act cooperatively to prevent multipolar mitoses. […] To farther evaluate this idea, time-lapse spinning disc microscopy was used to define the trajectory of centrosome movement in Ned-depleted S2 cells. […] Moreover, the bulk of the centrosome movement was directed away from the spindle and towards the cell cortex. […] Thus, cortical forces collaborate with intrinsic spindle bundling forces to organize multiple centrosomes.

S2 cells [2] = experiment: Live cell imaging of centrosome clustering in S2 cells; type: cell-based, Drosophila
Description: Relative to controls (14.7±6.4 min), there was a 1.5 fold delay in centrosome clustering in 13/15 LatA-treated cells (22.1±12.3 min). […] The cell cycle delay induced by LatA treatment is likely due to activation of the SAC, as evidenced by prominent labeling of kinetochores with BubR1 in LatA-treated cells.

[3] = test system: MDA-231, MMEDX 4N and N1E-115; experiment: Multipolar spindles after transient actin or astral MT disruption, cell lines with multiple centrosomes; type: cell-based
Description: (§1) To determine the effect of transient actin disruption in mammalian cells, the cell lines MCF-7, MDA-231, MMEDX 4N and N1E-115 were treated with DMSO, LatA (5 μM) or Dihydrocytochalasin B (DCB) (10 μM) for 2 hours. The MCF-7 cell line contains 2 centrosomes whereas the other cell lines contain greater than 2 centrosomes. […] These multipolar spindles result from declustering of extra centrosomes and were not due to the splitting/fragmentation of centrioles. Actin presumably influences centrosome positioning via forces on astral MTs.

MDA-231 cells = experiment: Multipolar spindles in MDA-231 cells; type: cell-based
Description: The parallel between Drosophila and mammalian cells extended to the genetic requirements for centrosome clustering. To examine this further, siRNA experiments were performed with mammalian HSET (Ned homolog) and Myo10 genes, as follows. Mixed pools (ON-TARGETplus and SMART pools) of 4 different oligos of siRNAs against human HSET, human Myo10 and mouse Myo10 were purchased from Dharmacon, siRNA against mouse HSET was purchased from Ambion. Non-specific scrambled siRNA was used as control (Ambion). The oligo sequence of the siRNAs are set forth below in Table 2:
Cells were transfected with Lipofectamine RNAiMAX (Invitrogen) with a final siRNA concentration of 50 nM according to the manufacturer's instructions. Cells were analyzed/harvested three days after transfection (unless specified otherwise). FIGS. 5 and 6 show the results of Western blots showing the depletion of HSET (FIG. 5) or Myo10 (FIG. 6) after three days of siRNA in MDA-231 and MCF-7 cells. FIG. 7 is a bar graph showing the percentage of cells with multipolar spindles in MCF-7 or MDA-231 cells upon treatment with siRNA of HSET or Myo10. […] As in S2 cells, Myo10-induced multipolarity is not a consequence of cytokinesis failure.
Several lines of evidence support this hypothesis. First, live-cell imaging was used to correlate interphase cell shape with the pattern of cell division during mitosis. MDA-231 (breast cancer cells containing extra centrosomes) that assumed an elongated or polarized shape in interphase, almost uniformly underwent bipolar divisions. […] Second, in tetraploid BSC-1 cells, whose thick RFs are readily visualized by DIC imaging, it was noted that a strong correlation between the positioning of the RFs and whether cells underwent a bipolar (bipolar distribution of RFs) or multipolar division (isotropic distribution of RFs). Third, RFs accumulate specific proteins, such as the ERM protein ezrin, which are implicated in cortical heterogeneity and thus local force generation on astral MTs. […]

MCF-7 = experiment: Multipolar spindles in cells with normal centrosome number; type: cell-based; conditions: cells plated on FN 30 μg/ml
Description: as §1
Cells were transfected with Lipofectamine RNAiMAX (Invitrogen) with a final siRNA concentration of 50 nM according to the manufacturer's instructions. Cells were analyzed/harvested three days after transfection (unless specified otherwise). FIGS. 5 and 6 show the results of Western blots showing the depletion of HSET (FIG. 5) or Myo10 (FIG. 6) after three days of siRNA in MDA-231 and MCF-7 cells. […]
Several lines of evidence support this hypothesis. […] Second, in tetraploid BSC-1 cells, whose thick RFs are readily visualized by DIC imaging, it was noted that a strong correlation between the positioning of the RFs and whether cells underwent a bipolar (bipolar distribution of RFs) or multipolar division (isotropic distribution of RFs). […]

[4] = 2 hours, LatA 5 μM, DCB 10 μM, vs DMSO

For `C/C1=C/C(=O)O[C@@H]2C[C@@H](CC[C@H](C)/C=C\C=C\CC1)O[C@@](O)([C@@H]1CSC(=O)N1)C2` [LatA, Latrunculin], the spindle multipolarity (S2 cells [1]; LatA treatment in Ned or Bj1/RCC1-depleted cells) was “combinatorial increase”, the “delay in centrosome clustering relative to controls” value (S2 cells [2]; 13/15 LatA-treated cells) was 1.5 fold and the “time of centrosome clustering” value (S2 cells [2]; 13/15 LatA-treated cells, controls 14.7±6.4 min) was 22.1 ± 12.3 min. The “cells that completely failed to cluster extra centrosomes” value (S2 cells [2]; LatA-treated cells) was 2/15 and the “frequency of multipolar spindles” value [3, 4] was “significant increase”.
For fibronectin [FN], the “frequency of multipolar spindles” value (MDA-231 cells; cells plated on FN 30 μg/ml) was “increased the frequency of multipolar spindles” and the “frequency of multipolar spindles” value (MCF-7) was “not in MCF-7 cells”.
In the case of `CC(C)(C)n1nc(-c2ccc(Cl)cc2)c2c(N)ncnc21` [PP2], the multipolar spindles (MDA-231 cells; src kinase inhibitor PP2) is reported as “induced multipolar spindles”.
`COC(=O)Nc1nc2ccc(C(=O)c3cccs3)cc2[nH]1` [nocodazole] was tested, and the “frequency of multipolar spindles” value ([3]; low dose nocodazole, cells with extra centrosomes) was “increased the frequency of multipolar spindles”.
With `COC[C@@H]([C@H](O)[C@H](O)C(=O)NCC[C@H](C)c1nc(/C=C/C[C@@H]2O[C@]3(C[C@@H](O)[C@@H]2C)O[C@H]([C@H](C[C@H](O)[C@H](C)[C@H](O)[C@H](C)/C=C(C)/C(C)=C/C=C/C(C)=C\C#N)OC)[C@H](OP(=O)(O)O)C3(C)C)co1)N(C)C` [CA, calyculin A] the “centrosome clustering defect induced by Ned RNAi” value (S2 cells [1]; CA treatment of Ned RNAi cells) was “partially rescued”, the centrosome clustering defects (S2 cells [1]; wild type S2 cells, low concentration CA, 15% without) was 9% and the “FN-induced increase of multipolar spindles” value (MDA-231 cells; CA added to cells plated on FN 30 μg/ml) was “reversed”.
In the case of `C=C1[C@@H](C)[C@H]2[C@H](Cc3ccccc3)NC(=O)[C@]23OC(=O)CC[C@H](O)CCC[C@@H](C)C/C=C/[C@H]3[C@@H]1O` [Dihydrocytochalasin B], the “frequency of multipolar spindles” value [3, 4] is reported as “significant increase”.
With concanavalin A [Con-A] the “centrosome clustering defects / multipolar mitoses” value (S2 cells [1]; 2 hours treatment) was “induced centrosome clustering defects”.
